Data reported in patent US8317912B2, “Wet state preservation of mineral slurries” (Arch Chemicals, Inc., priority 2011, dated 2012).

Tested on: contaminated slurry
Assay: Wet state preservation challenge test: dosed calcium carbonate slurry inoculated repeatedly with contaminated slurry, streaked on nutrient agar, examined for viable colonies; for growth of viable colonies on nutrient agar: key: − = no growth (no visible colonies); <10 = very light growth; + = light growth; ++ = moderate growth; +++ = heavy growth
Assay type: cell-based, bacteria
Parameters: viable colonies on nutrient agar: unit not given here
Details: for test outcome in place of 3rd inoculation: surfactant 0.1, 0.05, 0.025 and 0.01%, test completed after 2nd inoculation; for efficacy in preserving contaminated slurry (summary of Tables 4-8): between 0.03% and 0.09% of biocide A plus the surfactant, compared to biocide A and the surfactant used alone; for growth of viable colonies on nutrient agar: Biocide A 0 %
Protocol: In this example, a calcium carbonate-containing aqueous slurry was sterilized to eradicate bacterial contamination by weighing out 40 g aliquots into 60 g glass bottles and autoclaving the aliquots for 20 minutes at 120° C. A series of samples were prepared by taking the 40 g aliquots of the sterilized slurry and dosing with 0.136, 0.091, 0.046, 0.023, 0.011, and 0% of a biocide composition (“Biocide A”) shown in Table 1 plus 0, 0.01, 0.025, 0.05, and 0.1% of a surfactant as shown in Table 2. All samples were allowed to stand for 24 hours to equilibrate.
After equilibration, each test sample was inoculated with 0.8 g of a contaminated slurry, the bacteria count of which is shown in Table 3. The samples were incubated at 30° C. After a contact time of 6 hours, 1, 2, 3, or 4 days, a small aliquot of each sample was streaked across the surface of nutrient agar, incubated at 30° C. for 48 hours and the surface was examined for viable colonies. The inoculation and assessment procedures were repeated at 3 or 4 day intervals for a period of 3 inoculations.

[1] = Biocide A 0.091%, surfactant 0.05%, 1st inoculation, 1 day
[2] = surfactant 0.01 %, 1st inoculation, 0.2 days
[3] = surfactant 0.01 %, 1st inoculation, 1 day
[4] = surfactant 0.01 %, 1st inoculation, 2 days
[5] = surfactant 0.01 %, 1st inoculation, 3 days
[6] = surfactant 0.025 %, 1st inoculation, 0.2 days
[7] = surfactant 0.025 %, 1st inoculation, 1 day
[8] = surfactant 0.025 %, 1st inoculation, 2 days
[9] = surfactant 0.025 %, 1st inoculation, 3 days
[10] = surfactant 0.05 %, 1st inoculation, 0.2 days
[11] = surfactant 0.05 %, 1st inoculation, 1 day
[12] = surfactant 0.05 %, 1st inoculation, 2 days
[13] = surfactant 0.05 %, 1st inoculation, 3 days
[14] = surfactant 0.1 %, 1st inoculation, 0.2 days
[15] = surfactant 0.1 %, 1st inoculation, 1 day
[16] = surfactant 0.1 %, 1st inoculation, 2 days
[17] = surfactant 0.1 %, 1st inoculation, 3 days
[18] = Biocide A 0.091%, surfactant 0.01%, 1st inoculation, 0.2 days
[19] = Biocide A 0.136%, surfactant 0.025%, 3rd inoculation, 1 day
[20] = Biocide A 0.136%, surfactant 0.05%, 3rd inoculation, 1 day

CCCCC(CC)COC(=O)CC(C(=O)OCC(CC)CCCC)S(=O)(=O)[O-].[Na+] (centres unmarked) [Aerosol ® OT, Sodium dioctyl suphosuccinate]
test outcome in place of 3rd inoculation (Biocide A 0.023%): SAMPLES FAILED
viable colonies on nutrient agar (Biocide A 0.091%, surfactant 0.01%, 1st inoculation, 1 day): <10
viable colonies on nutrient agar [1]: <10
viable colonies on nutrient agar (Biocide A 0.136%, surfactant 0.025%, 1st inoculation, 1 day): <10
efficacy in preserving contaminated slurry (summary of Tables 4-8): improved efficacy
growth of viable colonies on nutrient agar [2]: +++
growth of viable colonies on nutrient agar [3]: +++
growth of viable colonies on nutrient agar [4]: +++
growth of viable colonies on nutrient agar [5]: +++
growth of viable colonies on nutrient agar [6]: +++
growth of viable colonies on nutrient agar [7]: +++
growth of viable colonies on nutrient agar [8]: +++
growth of viable colonies on nutrient agar [9]: +++
growth of viable colonies on nutrient agar [10]: +++
growth of viable colonies on nutrient agar [11]: +++
growth of viable colonies on nutrient agar [12]: +++
growth of viable colonies on nutrient agar [13]: +++
growth of viable colonies on nutrient agar [14]: +++
growth of viable colonies on nutrient agar [15]: +++
growth of viable colonies on nutrient agar [16]: +++
growth of viable colonies on nutrient agar [17]: +++

CCCCCCCCCCCCc1ccc(S(=O)(=O)O)cc1 [Dodecyl benzene sulfonic acid]
viable colonies on nutrient agar (Biocide A 0.023%, surfactant 0.01%, 1st inoculation, 2 days): <10
viable colonies on nutrient agar (Biocide A 0.023%, surfactant 0.05%, 1st inoculation, 2 days): <10
viable colonies on nutrient agar (Biocide A 0.023%, surfactant 0.05%, 1st inoculation, 3 days): <10
viable colonies on nutrient agar (Biocide A 0.023%, surfactant 0.1%, 1st inoculation, 2 days): <10
viable colonies on nutrient agar (Biocide A 0.023%, surfactant 0.1%, 1st inoculation, 3 days): <10
test outcome in place of 3rd inoculation (Biocide A 0.023%): SAMPLES FAILED
viable colonies on nutrient agar (Biocide A 0.046%, surfactant 0.025%, 3rd inoculation, 2 days): <10
viable colonies on nutrient agar (Biocide A 0.046%, surfactant 0.05%, 3rd inoculation, 2 days): <10
viable colonies on nutrient agar (Biocide A 0.046%, surfactant 0.1%, 3rd inoculation, 2 days): <10
viable colonies on nutrient agar [18]: <10
viable colonies on nutrient agar (Biocide A 0.091%, surfactant 0.01%, 3rd inoculation, 1 day): <10
viable colonies on nutrient agar (Biocide A 0.091%, surfactant 0.05%, 1st inoculation, 0.2 days): <10
viable colonies on nutrient agar (Biocide A 0.091%, surfactant 0.1%, 3rd inoculation, 1 day): <10
viable colonies on nutrient agar (Biocide A 0.136%, surfactant 0.01%, 3rd inoculation, 1 day): <10
viable colonies on nutrient agar [19]: <10
viable colonies on nutrient agar [20]: <10
efficacy in preserving contaminated slurry (summary of Tables 4-8): improved efficacy
growth of viable colonies on nutrient agar [2]: +++
growth of viable colonies on nutrient agar [3]: +++
growth of viable colonies on nutrient agar [4]: +++
growth of viable colonies on nutrient agar [5]: +++
growth of viable colonies on nutrient agar [6]: +++
growth of viable colonies on nutrient agar [7]: +++
growth of viable colonies on nutrient agar [8]: +++
growth of viable colonies on nutrient agar [9]: +++
growth of viable colonies on nutrient agar [10]: +++
growth of viable colonies on nutrient agar [11]: +++
growth of viable colonies on nutrient agar [12]: +++
growth of viable colonies on nutrient agar [13]: +++
growth of viable colonies on nutrient agar [14]: +++
growth of viable colonies on nutrient agar [15]: +++
growth of viable colonies on nutrient agar [16]: +++
growth of viable colonies on nutrient agar [17]: +++

CCCCC(CC)CN(CCC(=O)[O-])CCC(=O)[O-].[Na+].[Na+] (centres unmarked) [Lakeland AMA LF70 ™]
test outcome in place of 3rd inoculation (Biocide A 0.023%): SAMPLES FAILED
viable colonies on nutrient agar (Biocide A 0.046%, surfactant 0.01%, 1st inoculation, 2 days): <10
viable colonies on nutrient agar (Biocide A 0.046%, surfactant 0.1%, 1st inoculation, 2 days): <10
viable colonies on nutrient agar [18]: <10
viable colonies on nutrient agar (Biocide A 0.091%, surfactant 0.01%, 3rd inoculation, 2 days): <10
viable colonies on nutrient agar (Biocide A 0.091%, surfactant 0.025%, 1st inoculation, 3 days): <10
viable colonies on nutrient agar [1]: <10
viable colonies on nutrient agar (Biocide A 0.091%, surfactant 0.05%, 1st inoculation, 3 days): <10
viable colonies on nutrient agar (Biocide A 0.091%, surfactant 0.05%, 3rd inoculation, 2 days): <10
viable colonies on nutrient agar (Biocide A 0.091%, surfactant 0.1%, 1st inoculation, 3 days): <10
viable colonies on nutrient agar (Biocide A 0.091%, surfactant 0.1%, 3rd inoculation, 2 days): <10
viable colonies on nutrient agar (Biocide A 0.136%, surfactant 0.01%, 1st inoculation, 3 days): <10
viable colonies on nutrient agar [19]: <10
viable colonies on nutrient agar (Biocide A 0.136%, surfactant 0.05%, 1st inoculation, 1 day): <10
viable colonies on nutrient agar (Biocide A 0.136%, surfactant 0.05%, 1st inoculation, 3 days): <10
viable colonies on nutrient agar [20]: <10
viable colonies on nutrient agar (Biocide A 0.136%, surfactant 0.1%, 1st inoculation, 1 day): <10
viable colonies on nutrient agar (Biocide A 0.136%, surfactant 0.1%, 1st inoculation, 3 days): <10

CCCCCCCCCCCCOS(=O)(=O)[O-].[Na+] [SDS, Sodium dodecyl sulfate]
viable colonies on nutrient agar (Biocide A 0.023%, surfactant 0.01%, 1st inoculation, 3 days): <10
viable colonies on nutrient agar (Biocide A 0.023%, surfactant 0.025%, 1st inoculation, 1 day): <10
viable colonies on nutrient agar (Biocide A 0.046%, surfactant 0.01%, 1st inoculation, 1 day): <10
viable colonies on nutrient agar (Biocide A 0.046%, surfactant 0.01%, 3rd inoculation, 3 days): <10
viable colonies on nutrient agar (Biocide A 0.046%, surfactant 0.05%, 1st inoculation, 0.2 days): <10
viable colonies on nutrient agar (Biocide A 0.046%, surfactant 0.05%, 2nd inoculation, 1 day): <10
viable colonies on nutrient agar (Biocide A 0.046%, surfactant 0.1%, 1st inoculation, 0.2 days): <10
viable colonies on nutrient agar (Biocide A 0.046%, surfactant 0.1%, 2nd inoculation, 1 day): <10
viable colonies on nutrient agar (Biocide A 0.091%, surfactant 0.025%, 3rd inoculation, 0.2 days): <10
efficacy in preserving contaminated slurry (summary of Tables 4-8): improved efficacy
growth of viable colonies on nutrient agar [2]: +++
growth of viable colonies on nutrient agar [3]: +++
growth of viable colonies on nutrient agar [4]: +++
growth of viable colonies on nutrient agar [5]: +++
growth of viable colonies on nutrient agar [6]: +++
growth of viable colonies on nutrient agar [7]: +++
growth of viable colonies on nutrient agar [8]: +++
growth of viable colonies on nutrient agar [9]: +++
growth of viable colonies on nutrient agar [10]: +++
growth of viable colonies on nutrient agar [11]: +++
growth of viable colonies on nutrient agar [12]: +++
growth of viable colonies on nutrient agar [13]: +++
growth of viable colonies on nutrient agar [14]: +++
growth of viable colonies on nutrient agar [15]: +++
growth of viable colonies on nutrient agar [16]: +++
growth of viable colonies on nutrient agar [17]: +++
